Test system: mucin
Test: Bulk diffusion of FITC-peptides and fluorescein salt in mucin
Type: in vitro ADME
Details: DPBS/Dmucin

O=C([O-])c1ccccc1-c1c2ccc(=O)cc-2oc2cc([O-])ccc12.[Na+].[Na+] [Fluorescein salt, fluorescein sodium salt]
fold decreased diffusion in mucin compared to saline: 3 fold

From article doi:10.1101/659573v1 (bioRxiv, 2019)
